The target in series [1] is T1, human Branched Chain Amino Acid Aminotransferase cytosolic form (hBCATc) (Homo sapiens, UniProt P54687).
T1 construct: inferred from purification on a Ni-charged chelating column with imidazole elution; made in house; host or cells: E. coli BL21(DE3)
T1 sequence (P54687 1-386): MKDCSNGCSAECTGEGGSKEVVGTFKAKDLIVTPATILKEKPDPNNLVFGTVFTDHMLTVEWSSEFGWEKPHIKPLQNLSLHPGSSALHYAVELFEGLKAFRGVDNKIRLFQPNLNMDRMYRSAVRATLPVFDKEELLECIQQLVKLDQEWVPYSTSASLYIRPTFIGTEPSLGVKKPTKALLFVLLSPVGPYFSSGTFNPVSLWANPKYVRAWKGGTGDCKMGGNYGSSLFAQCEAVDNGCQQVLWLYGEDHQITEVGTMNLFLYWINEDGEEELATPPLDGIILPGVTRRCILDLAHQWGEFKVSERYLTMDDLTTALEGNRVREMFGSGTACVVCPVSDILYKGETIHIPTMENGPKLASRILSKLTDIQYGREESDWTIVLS
Nature of the series: In vitro coupled enzyme assay, human BCAT cytosolic form. The format is biochemical. Conditions: inhibition of recombinant human BCATc; coupled glutamate dehydrogenase/NADH assay, 37° C., pH 7.8; read-out: rhBCATc. As to the method:
(§1) In vitro enzyme assay: human Branched Chain Amino Acid Aminotransferase cytosolic form (hBCATc) and mitochondrial form (hBCATm) as well as rat BCAT cytosolic form were assayed at 37° C. in 25 mM phosphate buffer pH 7.8. In addition, 2 mM DTT and 12.5 mM EDTA were added to the assay mixture. A coupling enzyme assay was used to monitor the production of glutamate. The formation of NADH from NAD+at […] was followed on a 96-well plate Molecular Devices plate reader. The following components were used in this coupled assay: 4 mM ADP, 1 mM NAD+, 750 μM L-Leucine, 500 μM a-ketoglutarate, 10 μM pyridoxal phosphate, 1 unit glutamate dehydrogenase, and 1.25 μg of the appropriate BCAT enzyme. Inhibitions by compounds were assayed by adding various concentrations to this coupled assay procedure as a DMSO stock up to a 5% v/v DMSO/buffer ratio.
(§2) Enzyme Preparation: humanBCATc and ratBCATc were expressed in BL21(DE3) cells. A growing culture of cells was induced with 1 mM IPTG at room temperature overnight. These cells were harvested by centrifugation at 10,000 g for 20 minutes. The supernatant was discarded, and the cells were stored at −80° C. until needed. The protein was purified by the following method. The cell paste was resuspended in extraction buffer (0.1 M phosphate, pH 8.0, with 0.01 M Tris-HCL and 5 mM TCEP and then lysed on a French Press at 1000 psi. The lysate was centrifuged at 10,000 g for 15 minutes, and the pellet was discarded. The supernatant was loaded onto a Hitrap Chelating column previously charged with 0.1 M NiSO4 and washed with 3 to 4 column volumes of extraction buffer. The column was then washed with 0.01 Tris, pH 7.5, 10% glycerol, 150 mM NaCl, 5 mM TCEP for two column volumes. The column was then further washed with two column volumes of 0.1 M phosphate, pH 6.0, 0.01 M Tris, 10% glycerol, and 750 mM NaCl. Finally, the column was washed with two column volumes of the same buffer plus 50 mM imidazole. The BCAT enzyme was then eluted with the same buffer but with 350 mM imidazole. The eluant was then dialyzed overnight against 10 mM phosphate buffer pH 8.0, 10% glycerol, and 5 mM TCEP. The dialyzed protein was then loaded onto a Q-sepharose column and eluted using a salt gradient. Active fractions were collected and further purified on a Superose-12 column to yield pure BCAT protein.

Series [2] addresses T2, rat BCAT cytosolic form (rrBCATc) (Rattus norvegicus, UniProt P54690).
T2 construct: inferred from purification on a Ni-charged chelating column with imidazole elution; made in house; host or cells: E. coli BL21(DE3)
T2 sequence (P54690 1-411): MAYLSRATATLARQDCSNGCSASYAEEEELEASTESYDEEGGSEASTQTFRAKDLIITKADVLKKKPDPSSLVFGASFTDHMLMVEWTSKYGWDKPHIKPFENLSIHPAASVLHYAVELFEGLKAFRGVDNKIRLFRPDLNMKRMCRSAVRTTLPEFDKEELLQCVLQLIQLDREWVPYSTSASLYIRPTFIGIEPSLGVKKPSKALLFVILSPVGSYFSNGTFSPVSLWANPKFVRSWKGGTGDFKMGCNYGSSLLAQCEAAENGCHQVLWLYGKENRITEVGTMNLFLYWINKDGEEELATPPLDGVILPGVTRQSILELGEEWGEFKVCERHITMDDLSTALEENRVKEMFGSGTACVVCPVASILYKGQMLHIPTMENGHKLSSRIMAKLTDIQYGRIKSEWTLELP
Kind of series: In vitro coupled enzyme assay, rat BCAT cytosolic form. The format is biochemical. Conditions: inhibition of recombinant rat BCATc; coupled glutamate dehydrogenase/NADH assay, 37° C., pH 7.8. As to the method: as §1, §2

For orientation: melting point means the temperature, or range, at which the solid turns liquid.

`O=C(NNS(=O)(=O)c1ccccc1)c1ccc(NS(=O)(=O)c2ccccc2)cc1` [Example 15] gave a melting point of 140.8 to 144.5 °C. Also, in series [1], the IC50 stood at 4.9 µM.

On to `Cc1cccc(S(=O)(=O)Nc2ccc(C(=O)NNS(=O)(=O)c3ccccc3)cc2)c1` [Example 17, Benzoic acid, 4-[[(3-methylphenyl)sulfonyl]amino]-, 2-(phenylsulfonyl)hydrazide], for which, in series [1], the IC50 is 2.3 µM. The same measure, in the same setting: in the case of `CCCc1ccc(S(=O)(=O)Nc2ccc(C(=O)NNS(=O)(=O)c3ccccc3)cc2)cc1` [Example 11, Benzoic acid, 4-[[(4-n-propylphenyl)sulfonyl]amino]-, 2-(phenylsulfonyl)hydrazide] it was 7.5 µM. `Cc1cccc(Cl)c1S(=O)(=O)Nc1ccc(C(=O)NNS(=O)(=O)c2ccccc2)cc1` [Example 7, Benzoic acid, 4-[[(2-chloro-6-methylphenyl)sulfonyl]amino]-, 2-(phenylsulfonyl)hydrazide] registered a melting point of 214.4 to 215.6 °C. Regarding `O=C(NNS(=O)(=O)c1ccccc1C(F)(F)F)c1ccc(Oc2ccccc2)cc1` [Example 23, 4-Phenoxybenzoic acid, 2-[2-trifluorophenylsulfonyl]hydrazide], the IC50 in series [1] came to 17 µM; in series [2] it was 0.43 µM.

Take `Cc1ccc(S(=O)(=O)Nc2ccc(C(=O)NNS(=O)(=O)c3ccccc3)cc2)cc1` [Example 9, Benzoic acid, 4-[[(4-methylphenyl)sulfonyl]amino]-, 2-(phenylsulfonyl)hydrazide]: the melting point lay in the range of 191.6 to 192.4 °C. In addition, the IC50 in series [1] came out at 3.8 µM. Take `O=C(NNS(=O)(=O)c1ccccc1)c1ccc(NS(=O)(=O)c2ccc(F)cc2)cc1` [Example 14, Benzoic acid, 4-[[(4-fluorophenyl)sulfonyl]amino]-, 2-(phenylsulfonyl)hydrazide]: the melting point lay in the range of 183.5 to 185 °C. Also, the IC50 in series [1] came to 4.8 µM.

`COc1ccc(S(=O)(=O)Nc2ccc(C(=O)NNS(=O)(=O)c3ccccc3)cc2)cc1` [Example 30, Benzoic acid, 4-[[(4-methoxyphenyl)sulfonyl]amino]-, 2-(phenylsulfonyl)hydrazide] returned a melting point of 164.3 to 164.9 °C. Besides, the IC50 in series [1] is 2.8 µM.

In turn, `O=C(NNS(=O)(=O)c1ccccc1)c1ccc(C#CCC2CCCCC2)cc1` [Example 34, 4-(3-Cyclohexyl-1-propynyl)-benzoic acid, 2-(phenylsulfonyl)hydrazide] registered a melting point of 180 to 182 °C. The IC50 in series [1] is 32.3 µM. Take `O=C(NNS(=O)(=O)c1ccccc1)c1ccc(NS(=O)(=O)c2c(Cl)cc(Cl)cc2Cl)cc1` [Example 3, Benzoic acid, 4-[[(2,4,6trichlorophenyl)sulfonyl]amino]-, 2-(phenylsulfonyl)hydrazide]: the melting point was in the range of 195.7 to 196.2 °C. In addition, the IC50 in series [1] was 0.7 µM. Regarding `O=C(NNS(=O)(=O)c1ccccc1)c1cccc(Oc2ccccc2)c1` [Example 26, 3-Phenoxybenzoic acid, 2-(phenylsulfonyl)hydrazide], the IC50 was determined as 34 µM in series [1] and 2.2 µM in series [2]. For `CCCCc1ccc(S(=O)(=O)Nc2ccc(C(=O)NNS(=O)(=O)c3ccccc3)cc2)cc1` [Example 12, Benzoic acid, 4-[[(4-n-butylphenyl)sulfonyl]amino]-, 2-(phenylsulfonyl)hydrazide], the melting point fell in the range of 76 to 77.1 °C. The IC50 in series [1] came out at 4.6 µM. The matching figures for `CS(=O)(=O)Nc1ccc(C(=O)NNS(=O)(=O)c2ccccc2)cc1` [Example 8, Benzoic acid, 4-[(methylsulfonyl)amino]-, 2-(phenylsulfonyl)hydrazide]: 185.6 to 186.5 °C and 7 µM. In the case of `O=C(NNS(=O)(=O)c1ccccc1)c1ccccc1Oc1ccccc1` [Example 27, 2-Phenoxybenzoic acid, 2-(phenylsulfonyl)hydrazide], the melting point is 149 to 150 °C. The IC50 in series [1] is 50 µM. `O=C(NNS(=O)(=O)c1ccccc1OC(F)(F)F)c1ccc(Oc2ccccc2)cc1` [Example 21, 4-Phenoxybenzoic acid, 2-[2-(trifluoromethoxy)phenylsulfonyl]hydrazide]: the IC50 is 28 µM in series [1] and 2.9 µM in series [2].

Turning to `O=C(NNS(=O)(=O)c1ccccc1)c1ccc([N+](=O)[O-])cc1` [Example 1, Benzoic acid, 4-nitro-2-(phenylsulfonyl)hydrazide], the melting point was 193 to 195 °C. Moreover, the IC50 in series [1] stood at 40 µM. `O=C(NNS(=O)(=O)c1ccccc1)c1ccc(I)cc1` [Example 31, 4-Iodo-benzoic acid, 2-(phenylsulfonyl)hydrazide] gave a melting point of 193 to 195 °C. For the compound `Cc1ccc(S(=O)(=O)NNC(=O)c2ccc(Oc3ccccc3)cc2)cc1[N+](=O)[O-]` [Example 22, 4-Phenoxybenzoic acid, 2-[(4-methyl-3-nitro)phenylsulfonyl]hydrazide], the IC50 in series [1] was determined as 110 µM.

Compound `O=C(NNS(=O)(=O)c1ccccc1)c1ccc(NS(=O)(=O)c2ccc(C(F)(F)F)cc2)cc1` [Example 4, Benzoic acid, 4-[[[4-(trifluoromethyl)phenyl]sulfonyl]amino]-, 2-(phenylsulfonyl)hydrazide] registered a melting point of 98.5 to 99.4 °C. The IC50 in series [1] was 6 µM. Take `O=C(NNS(=O)(=O)c1ccccc1)c1ccc(Oc2ccccc2)cc1` [Example 28, 4-Phenoxybenzoic acid, 2-(phenylsulfonyl)hydrazide]: the IC50 was found to be 37 µM in series [1] and 1.5 µM in series [2]. The matching figures for `O=C(NNS(=O)(=O)c1ccccc1Cl)c1ccc(Oc2ccccc2)cc1` [Example 20, 4-Phenoxybenzoic acid, 2-[2-chlorophenylsulfonyl]hydrazide]: 35 µM and 5.9 µM. The matching figures for `Cc1cccc(S(=O)(=O)NNC(=O)c2ccc(Oc3ccccc3)cc2)c1` [Example 18, 4-Phenoxybenzoic acid, 2-[(3-methyl)phenylsulfonyl]hydrazide]: 9.5 µM and 1.2 µM. Compound `O=C(NNS(=O)(=O)c1ccccc1)c1ccc(NS(=O)(=O)c2ccc(Oc3ccccc3)cc2)cc1` [Example 6, Benzoic acid, 4-[[[(4-phenoxy)benzene]sulfonyl]amino]-, 2-(phenylsulfonyl)hydrazide] returned a melting point of 94.1 to 94.9 °C. Moreover, in series [1], the IC50 came out at 3 µM. For the compound `Cc1cccc(S(=O)(=O)Nc2ccc(C(=O)NNS(=O)(=O)c3ccccc3)cc2)c1` (hydrate or solvate) [Example 17, Benzoic acid, 4-[[(3-methylphenyl)sulfonyl]amino]-, 2-(phenylsulfonyl)hydrazide], the melting point was in the range of 219 to 219.7 °C.

Turning to `CCc1ccc(S(=O)(=O)Nc2ccc(C(=O)NNS(=O)(=O)c3ccccc3)cc2)cc1` [Example 10, Benzoic acid, 4-[[(4-ethylphenyl)sulfonyl]amino]-, 2-(phenylsulfonyl)hydrazide], the melting point was 142.3 to 142.9 °C. The IC50 in series [1] was found to be 13 µM.

Values taken from patent US6809119B2, “Branched chain amino acid-dependent aminotransferase inhibitors and their use in the treatment of neurodegenerative diseases” (Warner-Lambert Company LLC, priority 2001, dated 2004).
